Counter-ions that a name gives are not always drawn.
How the values were obtained:
[1] = system: Bezold-Jarisch reflex (serotonin-induced decrease in heart rate); test: Inhibition of serotonin-induced Bezold-Jarisch reflex; assay type: in vivo, male rats; details: Rattus norvegicus, iv, 5 min; i.v. 5 min before 0.1 mg/kg i.v. serotonin; dose inhibiting response by 50%
From the text: 1. Inhibition of Bezold-Jarisch reflex
The effect of the test compound on the serotonin-induced decrease in heart rate (Bezold-Jarisch reflex) was investigated in male rats, 6-8 weeks of age, with reference to the method of Richardson, et al. (Richardson, B. P., Engel, G., Donatsch, P. and Stadle, P. A.: Identification of serotonin-receptor subtypes and their specific blockade by a new class of drugs; Nature 316, 126-131 (1985)). With the animal immobilized in dorsal position under urethane anesthesia, 0.1 mg/kg of serotonin was administered intravenously before and 5 min after intravenous administration of the test compound and changes in heart rate were recorded. […] The ED50 value was calculated by the least square method.

[2] = system: cisplatin-induced vomiting; test: Inhibition of cisplatin-induced vomiting; assay type: in vivo, beagle dogs; details: for a/b (Number of animals which vomited/number of animals used): 5 min before cisplatin 2 mg/kg i.v., 6 h observation; for Vomiting frequency: control 12.2 ± 0.8; for Latency to vomiting: control 118.9 ± 5.6
Experimental: 2. Inhibition of cisplatin-induced vomiting
The experiment was performed with reference to the method of Cohen et al. (Cohen, M. L., Bloomquist, W., Gidda, J. S. and Lacefie, W: Comparison of the 5-HT3 receptor antagonist properties of ICS-205-930, GR38032F and Zacopride; J. Pharmacol. Exp. Ther. 248, 197-201 (1989)). In this experiment, beagle dogs of either sex, weighing 8-15 kg, were used. […] The test compounds were administered intravenously 5 minutes before the administration of cisplatin.

[3] = system: mice; test: Acute toxicity; assay type: in vivo, male mice; details: 48 hours
From the text: Six-week-old male mice were used.

[4] = system: scopolamine-induced deficits of learning and memory; test: Ameliorative effect on scopolamine-induced deficits of learning and memory (step through-type passive avoidance); assay type: in vivo, rats
Experimental: 3. Ameliorative effect on scopolamine-induced deficits of learning and memory
The experiment was performed in groups of 10 rats. In the intraperitoneal administration study, the test compound was dissolved in physiological saline and administered, and 15 minutes later 0.3 mg/kg of scopolamine was administered intraperitoneally. In the oral administration study, the test compound was suspended in 0.5% methylcellulose (MC) solution and administered and 30 minutes later 0.3 mg/kg of scopolamine was administered intraperitoneally. Thirty minutes after scopolamine administration, training sessions for a step through-type passive avoidance learning task was carried out and 24 hours after this training, trial sessions were started.
The latency to step-through in the trial sessions was determined up to a maximum of 300 seconds and the result was regarded as a learning result. For the test of significant differences from the control group, the Kruscall-Wallis test and the Fisher test were used. The control group received a physiological saline or MC solution.

[5] = target: T1, muscarine M1 receptors (Rattus norvegicus, UniProt P08482); test: Muscarine M1 receptor binding ([^3 H]pirenzepine displacement); details: 1 nM [^3 H]pirenzepine, rat brain membranes, pH 7.4, 25° C., 60 min
T1 construct: receptor membrane prepared from the rat brain; from tissue; host or cells: rat brain (receptor membrane)
T1 sequence (P08482 1-460): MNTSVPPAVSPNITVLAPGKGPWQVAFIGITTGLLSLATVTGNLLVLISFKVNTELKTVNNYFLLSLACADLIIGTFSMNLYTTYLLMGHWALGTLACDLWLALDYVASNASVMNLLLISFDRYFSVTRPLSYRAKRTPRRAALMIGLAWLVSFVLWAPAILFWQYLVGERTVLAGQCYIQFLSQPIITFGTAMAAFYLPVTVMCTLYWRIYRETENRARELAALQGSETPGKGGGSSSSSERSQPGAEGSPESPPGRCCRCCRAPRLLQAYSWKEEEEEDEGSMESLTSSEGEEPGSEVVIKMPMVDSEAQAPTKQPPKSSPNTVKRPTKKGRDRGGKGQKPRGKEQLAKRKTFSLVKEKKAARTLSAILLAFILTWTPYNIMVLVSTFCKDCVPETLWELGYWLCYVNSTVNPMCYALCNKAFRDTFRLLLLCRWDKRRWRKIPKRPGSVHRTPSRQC
Experimental: 4. Effect on muscarine M1 receptors
The muscarine M1 receptor binding assay was carried out according to the method of Watson and Yamamura [Life Sci. 32; 3001-3011 (1983)]. Thus, receptor membrane prepared from the rat brain were incubated with 1 nM [^3 H]pirenzepine in 10 mM Na/K phosphate buffer (pH 7.4) at 25° C. for 60 minutes. As a displacer, 1μM atropine was used.

[6] = system: emesis associated with the administration of anticancer drugs; details: background art; cited from earlier work
[7] = oral, 0.03 μg/kg, control 110.1 ± 41.6 (Example 11), 111.9 ± 41.4 (Example 12)
[8] = oral, 0.1 μg/kg, control 110.1 ± 41.6 (Example 11), 111.9 ± 41.4 (Example 12)
[9] = oral, 0.3 μg/kg, control 110.1 ± 41.6 (Example 11), 111.9 ± 41.4 (Example 12)
[10] = oral, 1 μg/kg, control 110.1 ± 41.6 (Example 11), 111.9 ± 41.4 (Example 12)

For `COc1ccc(-c2c(C(=O)N[C@@H]3CN4CCC3CC4)c3ccccc3n2C)cc1` [Example 2, (S)-(-)-N-(1-Azabicyclo[2,2,2]octo-3-yl)-2-(4-methoxyphenyl)-1-methylindole-3-carboxamide hydrochloride], the ED50 [1] was 0.3 µg/kg, the “a/b (Number of animals which vomited/number of animals used)” value ([2]; 0.03 mg/kg i.v.) was 2/2 and the Vomiting frequency ([2]; 0.03 mg/kg i.v.) was 6.5 times. For the same compound, the Latency to vomiting ([2]; 0.03 mg/kg i.v.) was 192.0 min, the “Number of dead animals/number of animals used” value ([3]; 30 mg/kg intraperitoneal) was 0/4 and the “Number of dead animals/number of animals used” value ([3]; 50 mg/kg intraperitoneal) was 0/4.

For `Cn1c(-c2ccccc2)c(C(=O)N[C@@H]2CN3CCC2CC3)c2ccccc21` [Example 3, (S)-(-)-N(1-Azabicyclo[2,2,2]octo-3-yl)-2-phenyl-1-methylindole-3-carboxamide hydrochloride], the “a/b (Number of animals which vomited/number of animals used)” value ([2]; 0.03 mg/kg i.v.) was 2/2, the Vomiting frequency ([2]; 0.03 mg/kg i.v.) was 1.0 times and the Latency to vomiting ([2]; 0.03 mg/kg i.v.) was 215.0 min. For the same compound, the “Number of dead animals/number of animals used” value ([3]; 30 mg/kg intraperitoneal) was 0/4 and the “Number of dead animals/number of animals used” value ([3]; 50 mg/kg intraperitoneal) was 0/4.

With `COc1ccc(-c2c(C(=O)NC3CN4CCC3CC4)c3ccccc3n2C)cc1` (stereo not shown) [Example 4, N-(1-Azabicyclo[2,2,21octo-3-yl)-2-(4-methoxyphenyl)-1-methylindole-3-carboxamide hydrochloride] the “Number of dead animals/number of animals used” value ([3]; 30 mg/kg intraperitoneal) was 0/4 and the “Number of dead animals/number of animals used” value ([3]; 50 mg/kg intraperitoneal) was 0/4.

In the case of `Cn1c(-c2ccc(Cl)cc2)c(C(=O)NC2CN3CCC2CC3)c2ccccc21` (stereo not shown) [Example 6, N-(1-Azabicyclo[2,2,2]octo-3-yl)-2-(4-chlorophenyl)-1-methylindole-3-carboxamide hydrochloride], the “Number of dead animals/number of animals used” value ([3]; 50 mg/kg intraperitoneal) is reported as 0/4.

With `Cn1c(-c2ccc(Cl)cc2)c(C(=O)N[C@@H]2CN3CCC2CC3)c2ccccc21` [Example 7, (S)-(-)-N-(1-Azabicyclo[2,2,2]octo-3-yl)-2-(4-chlorophenyl)-1-methylindole-3-carboxamide hydrochloride] the ED50 [1] was 0.28 µg/kg, the “a/b (Number of animals which vomited/number of animals used)” value ([2]; 0.03 mg/kg i.v.) was 4/4 and the Vomiting frequency ([2]; 0.03 mg/kg i.v.) was 2.3 ± 0.6 times. The Latency to vomiting ([2]; 0.03 mg/kg i.v.) was 206.8 ± 15.7 min and the “Number of dead animals/number of animals used” value ([3]; 50 mg/kg intraperitoneal) was 0/4.

Work on `COc1ccccc1-c1c(C(=O)NC2CN3CCC2CC3)c2ccccc2n1C` (stereo not shown) [Example 8, N-(1-Azabicylo[2,2,2]octo-3-yl)-2-(2-methoxyphenyl)-1-methylindole-3-carboxamide hydrochloride] yielded an ED50 [1] of 0.18 µg/kg.

For `Cn1c(-c2ccccc2Cl)c(C(=O)NC2CN3CCC2CC3)c2ccccc21` (stereo not shown) [Example 10, N-(1-Azabicyclo[2,2,2]octo-3-yl)-2-(2-chlorophenyl)-1-methylindole-3-carboxamide hydrochloride], the ED50 [1] was 0.25 µg/kg.

With `COc1ccccc1-c1c(C(=O)N[C@@H]2CN3CCC2CC3)c2ccccc2n1C` [Example 11, (S)-(-)-N-(1-Azabicyclo[2,2,2]octo-3-yl)-2-(2-methoxyphenyl)-1-methylindole-3carboxamide hydrochloride] the ED50 [1] was 0.14 µg/kg, the “a/b (Number of animals which vomited/number of animals used)” value ([2]; 0.01 mg/kg i.v.) was 4/4 and the Vomiting frequency ([2]; 0.01 mg/kg i.v.) was 6.8 ± 1.9 times. For the same compound, the Latency to vomiting ([2]; 0.01 mg/kg i.v.) was 149.5 ± 5.4 min, the “Latency (to step-through)” value [4, 7] was 214.1 ± 43.8 s and the “Latency (to step-through)” value [4, 8] was 246.5 ± 35.7 s. The “Latency (to step-through)” value [4, 9] was 246.7 ± 35.6 s, the “Latency (to step-through)” value [4, 10] was 162.0 ± 46.1 s and the IC50 [5] was 4600 nM.

With `Cn1c(-c2ccccc2Cl)c(C(=O)N[C@@H]2CN3CCC2CC3)c2ccccc21` [Example 12, (S)-(31)-N-(1-Azabicyclo[2,2,2]octo-3-yl)-2-(2-chlorophenyl)-1-methylindole-3-carboxamide hydrochloride] the ED50 [1] was 0.2 µg/kg, the “a/b (Number of animals which vomited/number of animals used)” value ([2]; 0.001 mg/kg i.v.) was 4/4 and the Vomiting frequency ([2]; 0.001 mg/kg i.v.) was 7.0 ± 1.7 times. The Latency to vomiting ([2]; 0.001 mg/kg i.v.) was 140.5 ± 13.6 min, the “a/b (Number of animals which vomited/number of animals used)” value ([2]; 0.01 mg/kg i.v.) was 4/4 and the Vomiting frequency ([2]; 0.01 mg/kg i.v.) was 3.8 ± 0.5 times. The Latency to vomiting ([2]; 0.01 mg/kg i.v.) was 173.8 ± 25.3 min, the “Latency (to step-through)” value ([4]; intraperitoneal, 0.1 μg/kg, control 103.8 ± 43.1) was 170.5 ± 43.3 s and the “Latency (to step-through)” value ([4]; intraperitoneal, 0.3 μg/kg, control 103.8 ± 43.1) was 183.0 ± 39.6 s. The “Latency (to step-through)” value ([4]; intraperitoneal, 1 μg/kg, control 103.8 ± 43.1) was 270.7 ± 29.3 s, the “Latency (to step-through)” value ([4]; intraperitoneal, 3 μg/kg, control 103.8 ± 43.1) was 256.3 ± 30.4 s and the “Latency (to step-through)” value ([4]; intraperitoneal, 10 μg/kg, control 103.8 ± 43.1) was 163.8 ± 45.6 s. For the same compound, the “Latency (to step-through)” value ([4]; intraperitoneal, 30 μg/kg, control 103.8 ± 43.1) was 127.8 ± 46.9 s, the “Latency (to step-through)” value [4, 7] was 108.5 ± 42.0 s and the “Latency (to step-through)” value [4, 8] was 246.3 ± 35.8 s. The “Latency (to step-through)” value [4, 9] was 247.3 ± 35.2 s, the “Latency (to step-through)” value [4, 10] was 105.5 ± 42.6 s and the “Latency (to step-through)” value ([4]; oral, 3 μg/kg, control 111.9 ± 41.4) was 139.2 ± 44.0 s. For the same compound, the IC50 [5] was 1200 nM.

For `Cc1nccn1CC1CCc2c(c3ccccc3n2C)C1=O` (stereo not shown) [GR-38032F, ondansetron], the “anxiolytic and antipsychotic actions (in words)” value [6] is listed as “exhibit excellent anxiolytic and antipsychotic actions” and the “effect on emesis associated with anticancer drugs (in words)” value [6] is listed as “markedly inhibit the emesis associated with the administration of anticancer drugs”.

With `CN1C2CCC1CC(OC(=O)c1c[nH]c3ccccc13)C2` (stereo not shown) [ICS-205-930, reference compound] the ED50 [1] was 1.79 µg/kg, the “a/b (Number of animals which vomited/number of animals used)” value ([2]; 0.03 mg/kg i.v.) was 4/4 and the Vomiting frequency ([2]; 0.03 mg/kg i.v.) was 9.5 ± 1.3 times. The Latency to vomiting ([2]; 0.03 mg/kg i.v.) was 139.8 ± 13.2 min.

Reference: patent US5342845A, “Indole derivatives and drugs” (priority 1990, dated 1994)
